Values quoted from earlier work as cited in patent US20100062066A1, “Formulations of Tetrahydropyridine Antiplatelet Agents for Parenteral or Oral Administration” (Acusphere, Inc, priority 2006, published 2010).

System: platelet aggregation
Conditions: background statement on clopidogrel enantiomers

Compound | anti-aggregation activity
COC(=O)C(c1ccccc1Cl)N1CCc2sccc2C1 (single isomer, unassigned) [R-enantiomer] | does not exhibit any anti-aggregation activity
COC(=O)[C@H](c1ccccc1Cl)N1CCc2sccc2C1 (single isomer, unassigned; enantiomer 2) [S-enantiomer, 2-(2-chlorophenyl)-2-(2,4,5,6,7,7a-tetrahydrothieno[3,2-c]pyridine)-5-yl-acetic acetic acid methyl ester] | biologically active
